Test results from the NIST ThermoML archive (doi:10.1021/acs.jced.7b01035).

Settings: 500 kPa, Liquid, Concentric cylinders viscometry

NCCCO [3-amino-1-propanol]
Settings	viscosity [mPa·s]
298.15 K	30.43
303.15 K	23.87
308.15 K	19.07
313.15 K	15.27
318.15 K	12.36
323.15 K	10.22
328.15 K	8.54
333.15 K	7.12
338.15 K	6.05
343.15 K	4.84
348.15 K	4.17
353.15 K	3.63
358.15 K	3.19
363.15 K	2.73
368.15 K	2.52
373.15 K	2.25
